The test system of experiment [1] is Staphylococcus aureus X1.1. Put plainly: MIC, standard agar-dilution assay, Staphylococcus aureus X1.1. The experiment is classed as cell-based.
The subject of experiment [2] is Staphylococcus aureus V41. The experiment can be described thus: MIC, standard agar-dilution assay, Staphylococcus aureus V41. The class given is cell-based.
Experiment [3] deals with Staphylococcus aureus X400. The experiment can be described thus: MIC, standard agar-dilution assay, Staphylococcus aureus X400. The class given is cell-based.
The test system of experiment [4] is Staphylococcus aureus S13E. The experiment can be described thus: MIC, standard agar-dilution assay, Staphylococcus aureus S13E. The class given is cell-based. To be noted: Staphylococcus aureus, S13E.
The subject of experiment [5] is Staphylococcus epidermidis EPI1. Put plainly: MIC, standard agar-dilution assay, Staphylococcus epidermidis EPI1. The experiment is classed as cell-based.
Experiment [6] concerns Staphylococcus epidermidis EPI2. Put plainly: MIC, standard agar-dilution assay, Staphylococcus epidermidis EPI2. The experiment is classed as cell-based. To be noted: Staphylococcus epidermidis, EPI2.
Experiment [7] relates to Streptococcus pyogenes C203. The experiment can be described thus: MIC, standard agar-dilution assay, Streptococcus pyogenes C203. The class given is cell-based. To be noted: Streptococcus pyogenes C203; agar dilution; read-out: MIC. On the technique in general: In agar dilution the substance is mixed into plates at graded concentrations.
In experiment [8] the test system is Streptococcus pneumoniae Park I. Put plainly: microbe, parasite or virus in culture. The class given is cell-based.
For experiment [9], the system named is Streptococcus Group D X66. The experiment can be described thus: MIC, standard agar-dilution assay, Streptococcus Group D X66. The class given is cell-based. To be noted: Streptococcus Group D X66; agar dilution; read-out: MIC.
For experiment [10], the system named is Streptococcus Group 9960. The experiment can be described thus: MIC, standard agar-dilution assay, Streptococcus Group 9960. The experiment is classed as cell-based. To be noted: GROUP9960; Streptococcus Group 9960; agar dilution; read-out: MIC.
For experiment [11], the system named is Haemophilus influenzae Holt. The experiment can be described thus: MIC, standard agar-dilution assay, Haemophilus influenzae Holt. The experiment is classed as cell-based.
In experiment [12] the test system is Haemophilus influenzae R252. The experiment can be described thus: MIC, standard agar-dilution assay, Haemophilus influenzae R252. The class given is cell-based. To be noted: Haemophilus influenzae, R252.
In experiment [13] the test system is Staphylococcus aureus. The experiment can be described thus: MIC, broth-dilution microtiter test, Staphylococcus aureus. The class given is cell-based. The source says: (§1) The MIC's in Table X were obtained using conventional broth-dilution microtiter tests.
Experiment [14] relates to Streptococcus bovis 80. The experiment can be described thus: MIC, broth-dilution microtiter test, Streptococcus bovis 80. To be noted: Streptococcus equinus; Streptococcus bovis 80; broth-dilution microtiter; read-out: MIC. The class given is cell-based.
Text: as §1

The test system of experiment [15] is Pasteurella multocida 17E. Put plainly: MIC, broth-dilution microtiter test, Pasteurella multocida 17E. To be noted: Pasteurella multocida 17E; bovine isolate; broth-dilution microtiter; read-out: MIC. The class given is cell-based.
Text: as §1

Experiment [16] concerns Pasteurella multocida 60A. The experiment can be described thus: MIC, broth-dilution microtiter test, Pasteurella multocida 60A. The class given is cell-based.
Text: as §1

In experiment [17] the test system is Pasteurella hemolytica 22C. Put plainly: MIC, broth-dilution microtiter test, Pasteurella hemolytica 22C. The class given is cell-based.
Text: as §1

In experiment [18] the test system is Mycoplasma gallisepticum. The experiment can be described thus: MIC, broth-dilution microtiter test, Mycoplasma gallisepticum. The experiment is classed as cell-based. To be noted: Mycoplasmoides gallisepticum.
Text: as §1

Experiment [19] relates to Mycoplasma synoviae. The experiment can be described thus: MIC, broth-dilution microtiter test, Mycoplasma synoviae. To be noted: Mycoplasmopsis synoviae. The class given is cell-based.
Text: as §1

Experiment [20] has as its system Mycoplasma hyorhinis. Put plainly: MIC, broth-dilution microtiter test, Mycoplasma hyorhinis. The class given is cell-based.
Text: as §1

Experiment [21] concerns Mycoplasma hyopneumoniae. The experiment can be described thus: MIC, broth-dilution microtiter test, Mycoplasma hyopneumoniae. The experiment is classed as cell-based. To be noted: Mesomycoplasma hyopneumoniae.
Text: as §1

Experiment [22] has as its system Streptococcus pyogenes C203. Put plainly: In vivo protection of mice experimentally infected with S. pyogenes C203. To be noted: Streptococcus pyogenes, mice, doses given 1 and 4 hours post-infection. As to the method:
The C-20 modified derivatives of this invention have shown in vivo antimicrobial activity against experimentally-induced infections in laboratory animals. When two doses of test compound were administered to mice experimentally infected with S. pyogenes C203, the activity observed was measured as an ED50 value [effective dose in mg/kg to protect 50% of the test animals: see Warren Wick, et al., J. Bacteriol. 81, 233-235 (1961)].

Where [23] appears, read: Pasteurella multocida 60A, avian isolate, broth-dilution microtiter, read-out: MIC.
The mark [24] stands for this setting: Pasteurella hemolytica 22C, broth-dilution microtiter, read-out: MIC.
The mark [25] stands for this setting: Mycoplasma synoviae, broth-dilution microtiter, read-out: MIC.
Setting [26] is: Mycoplasma hyorhinis, broth-dilution microtiter, read-out: MIC.
[27] abbreviates: Mycoplasma hyopneumoniae, broth-dilution microtiter, read-out: MIC.
Where [28] appears, read: Staphylococcus epidermidis, EPI1.

Values after ≈ are worked out from the molar mass of the structure shown. Like-named read-outs stand apart in the source and are kept apart here. Bounds are passed on as bounds.

Drawing on patent publication US4443436A, “C-20-Modified macrolide derivatives of the macrolide antibiotics tylosin, desmycosin, macrocin, and lactenocin” (Eli Lilly and Company, priority 1982, dated 1984), this text covers MIC and ED50 for three compounds.

For the compound `CCC1OC(=O)CC(O)C(C)C(OC2OC(C)C(OC3CC(C)(O)C(O)C(C)O3)C(N(C)C)C2O)C(CCOc2ccc(OC)cc2)CC(C)C(=O)C=CC(C)=CC1COC1OC(C)C(O)C(OC)C1OC` (stereo not shown) [Compound 14, 20-DH-20-O-(p-Methoxyphenyl)tylosin], the MIC worked out at 0.5 µg/mL (≈ 0.488 µM) in experiment [1] (Staphylococcus aureus X1.1, agar dilution, read-out: MIC); 0.5 µg/mL (≈ 0.488 µM) in experiment [2] (Staphylococcus aureus V41, penicillin-resistant strain, agar dilution, read-out: MIC); 2 µg/mL (≈ 1.95 µM) in experiment [3] (Staphylococcus aureus X400, methicillin-resistant strain, agar dilution, read-out: MIC); 1 µg/mL (≈ 0.976 µM) in experiment [4]; 2 µg/mL (≈ 1.95 µM) in experiment [5] (Staphylococcus epidermidis EPI1, agar dilution, read-out: MIC); 1 µg/mL (≈ 0.976 µM) in experiment [6]. The MIC in experiment [7] is 1 µg/mL (≈ 0.976 µM); in experiment [8] (Streptococcus pneumoniae Park I, agar dilution, read-out: MIC), 8 µg/mL (≈ 7.81 µM); in experiment [9] it was 128 µg/mL (≈ 125 µM); in experiment [10], 128 µg/mL (≈ 125 µM); in [11] (Haemophilus influenzae), 128 µg/mL (≈ 125 µM); in [12], over 128 µg/mL. Further, the MIC in experiment [13] was 1.56 µg/mL (≈ 1.52 µM); in experiment [14], 25 µg/mL (≈ 24.4 µM); in [15] it was over 50 µg/mL; in [16] (setting [23]) it was over 50 µg/mL; in [17] (setting [24]), over 50 µg/mL; in [18] (Mycoplasma gallisepticum, broth-dilution microtiter, read-out: MIC), 0.78 µg/mL (≈ 0.762 µM). Also, the figures for the MIC in experiment [19] (setting [25]), in [20] (setting [26]) and in [21] (setting [27]) were 6.25 µg/mL (≈ 6.1 µM), over 50 µg/mL and over 25 µg/mL, respectively.
With `CCC1OC(=O)CC(O)C(C)C(OC2OC(C)C(OC3CC(C)(O)C(O)C(C)O3)C(N(C)C)C2O)C(CCF)CC(C)C(=O)C=CC(C)=CC1COC1OC(C)C(O)C(OC)C1OC` (stereo not shown) [Compound 8, 20-DH-DO-20-Fluoro-tylosin], the MIC in [1] (Staphylococcus aureus, X1.1) stood at 1 µg/mL (≈ 1.09 µM); in experiment [2] (Staphylococcus aureus, V41), 1 µg/mL (≈ 1.09 µM); in [3] (Staphylococcus aureus, X400), 2 µg/mL (≈ 2.17 µM); in experiment [4], 1 µg/mL (≈ 1.09 µM); in [5] (setting [28]), 1 µg/mL (≈ 1.09 µM); in experiment [6] it was 1 µg/mL (≈ 1.09 µM). Further, the MIC in [7] was 4 µg/mL (≈ 4.35 µM); in experiment [8] (Streptococcus pneumoniae), 64 µg/mL (≈ 69.6 µM); in [9] it was over 128 µg/mL; in experiment [10] it was over 128 µg/mL; in experiment [11] (Haemophilus influenzae Holt, ampicillin-sensitive strain, read-out: MIC) it was over 128 µg/mL; in experiment [12] it was 128 µg/mL (≈ 139 µM). In addition, the MIC in experiment [13] is 1.56 µg/mL (≈ 1.7 µM); in experiment [14], over 50 µg/mL; in experiment [15] it was over 50 µg/mL; in [16] (setting [23]), over 50 µg/mL; in [17] (setting [24]), over 50 µg/mL; in experiment [18], 1.56 µg/mL (≈ 1.7 µM). The values for the MIC in [19] (setting [25]), in experiment [20] (setting [26]) and in experiment [21] (setting [27]) were 12.5 µg/mL (≈ 13.6 µM), over 50 µg/mL and over 25 µg/mL, respectively.
For orientation: ED50 means the midpoint of the dose-response relation. With `CCC1OC(=O)CC(O)C(C)C(OC2OC(C)C(O)C(N(C)C)C2O)C(CC2OCCO2)CC(C)C(=O)C=CC(C)=CC1COC1OC(C)C(O)C(OC)C1OC` (stereo not shown) [Compound 74], the MIC in [1] (Staphylococcus aureus, X1.1) worked out at 0.5 µg/mL (≈ 0.613 µM); in experiment [2] (Staphylococcus aureus, V41) it was 1 µg/mL (≈ 1.23 µM); in experiment [3] (Staphylococcus aureus, X400) it was 2 µg/mL (≈ 2.45 µM); in experiment [4], 0.5 µg/mL (≈ 0.613 µM); in experiment [5] (setting [28]), 0.5 µg/mL (≈ 0.613 µM); in [6], 0.25 µg/mL (≈ 0.306 µM). The MIC in [8] (Streptococcus pneumoniae) turned out to be 0.25 µg/mL (≈ 0.306 µM); in experiment [9] it was 8 µg/mL (≈ 9.8 µM); in experiment [10], 8 µg/mL (≈ 9.8 µM); in [11] (Haemophilus influenzae) it was 32 µg/mL (≈ 39.2 µM); in experiment [12], 32 µg/mL (≈ 39.2 µM); in [13], 3.12 µg/mL (≈ 3.82 µM). Also, the MIC came out at 6.25 µg/mL (≈ 7.66 µM) in experiment [14]; 25 µg/mL (≈ 30.6 µM) in experiment [15]; 50 µg/mL (≈ 61.3 µM) in [16] (Pasteurella multocida, 60A); 50 µg/mL (≈ 61.3 µM) in experiment [17] (Pasteurella, 22C); 3.12 µg/mL (≈ 3.82 µM) in experiment [18]; 6.25 µg/mL (≈ 7.66 µM) in experiment [19]. Also, the figures for the MIC in experiment [20] (Mycoplasma) and in [21] were 50 µg/mL (≈ 61.3 µM) and 1.56 µg/mL (≈ 1.91 µM), respectively. The ED50 in experiment [22] (C203, sc, subcutaneous, read-out: ED50, Subcutaneous) is 3.3 mg/kg; in experiment [22] (C203, oral, read-out: ED50, Oral), over 25 mg/kg.
